In assay [1] the test system is nAChR, SH-SY5Y cells. Briefly: Rb+ efflux assay, SH-SY5Y cells. The assay is classed as cell-based, human. The conditions noted are these: cell line SH-SY5Y.
For assay [2], the system named is nAChR, PC-12 cells. Description: Rb+ efflux assay, PC-12 cells. The format is cell-based, rat. The conditions noted are these: cell line PC-12.
The target of assay [3] is α3β4 nAChR (Rattus norvegicus, UniProt P04757+P12392). Description: biochemical. The assay is classed as binding. Also noted: host or cells: HEK293 (KXα3β4R2). The conditions noted are these: α3β4 nAChR; for koff / kon / Kd: NLC; for koff: read-out: koff dissociation constant rate; for kon: read-out: kon association constant rate; for Kd: read-out: log K chromatographic equilibrium constant (converted); for k′(NLC) retention capacity factor: 10 μM, 20 μl injected, ammonium acetate 10 mM pH 7.4/methanol 85:15.
Sequence of α3β4 nAChR (P04757 26-499): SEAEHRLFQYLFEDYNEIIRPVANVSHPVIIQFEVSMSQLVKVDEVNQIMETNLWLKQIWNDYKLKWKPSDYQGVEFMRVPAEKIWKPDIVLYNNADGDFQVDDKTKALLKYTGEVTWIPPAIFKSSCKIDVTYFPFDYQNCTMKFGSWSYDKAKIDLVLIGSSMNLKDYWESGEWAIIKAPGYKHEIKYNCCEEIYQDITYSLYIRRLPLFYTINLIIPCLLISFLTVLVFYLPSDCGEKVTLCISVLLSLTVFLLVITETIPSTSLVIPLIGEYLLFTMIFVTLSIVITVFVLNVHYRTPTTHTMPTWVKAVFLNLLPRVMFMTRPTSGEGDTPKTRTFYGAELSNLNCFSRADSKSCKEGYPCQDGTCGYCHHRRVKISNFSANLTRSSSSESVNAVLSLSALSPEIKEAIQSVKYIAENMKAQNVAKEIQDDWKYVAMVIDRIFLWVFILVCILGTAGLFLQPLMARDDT
Sequence of α3β4 nAChR (P12392 21-495): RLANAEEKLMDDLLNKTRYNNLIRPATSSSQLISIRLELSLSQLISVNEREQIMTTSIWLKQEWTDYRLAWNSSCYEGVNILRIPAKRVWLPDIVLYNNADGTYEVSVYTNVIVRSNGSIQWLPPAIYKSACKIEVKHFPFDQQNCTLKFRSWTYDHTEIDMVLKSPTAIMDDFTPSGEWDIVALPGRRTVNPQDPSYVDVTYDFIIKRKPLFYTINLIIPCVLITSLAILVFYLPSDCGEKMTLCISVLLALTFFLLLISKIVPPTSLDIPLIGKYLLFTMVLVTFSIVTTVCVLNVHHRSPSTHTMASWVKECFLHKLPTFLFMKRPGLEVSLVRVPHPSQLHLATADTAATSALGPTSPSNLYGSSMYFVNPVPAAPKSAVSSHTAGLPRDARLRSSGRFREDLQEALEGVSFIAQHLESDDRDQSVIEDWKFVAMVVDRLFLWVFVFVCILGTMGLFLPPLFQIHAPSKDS

Assay [4] has as its target K177 (α4β2) (Homo sapiens, UniProt P17787+P43681). Description: Rb+ efflux assay, K177 cells.

The term IC50 denotes the concentration needed to halve the response being measured. In general, koff refers to the first-order rate constant of dissociation. For orientation: kon means the second-order rate constant of association.

Sequence of K177 (α4β2) (P43681 27-627): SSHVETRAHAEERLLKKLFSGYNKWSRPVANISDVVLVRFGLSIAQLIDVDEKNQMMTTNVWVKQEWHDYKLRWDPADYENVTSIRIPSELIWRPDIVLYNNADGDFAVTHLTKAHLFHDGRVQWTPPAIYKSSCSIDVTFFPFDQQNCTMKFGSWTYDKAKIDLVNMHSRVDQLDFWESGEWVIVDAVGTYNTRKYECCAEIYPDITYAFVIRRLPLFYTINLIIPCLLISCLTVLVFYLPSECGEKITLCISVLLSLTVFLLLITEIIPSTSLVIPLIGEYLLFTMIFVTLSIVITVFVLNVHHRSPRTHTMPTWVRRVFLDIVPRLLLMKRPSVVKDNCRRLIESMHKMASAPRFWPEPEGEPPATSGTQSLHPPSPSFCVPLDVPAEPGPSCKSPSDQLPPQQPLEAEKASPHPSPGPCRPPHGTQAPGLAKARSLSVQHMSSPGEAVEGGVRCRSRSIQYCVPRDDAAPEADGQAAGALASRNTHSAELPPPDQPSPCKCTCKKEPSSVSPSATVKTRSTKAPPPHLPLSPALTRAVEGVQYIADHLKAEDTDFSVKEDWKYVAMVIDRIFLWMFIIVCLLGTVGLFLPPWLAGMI
Sequence of K177 (α4β2) (P17787 26-502): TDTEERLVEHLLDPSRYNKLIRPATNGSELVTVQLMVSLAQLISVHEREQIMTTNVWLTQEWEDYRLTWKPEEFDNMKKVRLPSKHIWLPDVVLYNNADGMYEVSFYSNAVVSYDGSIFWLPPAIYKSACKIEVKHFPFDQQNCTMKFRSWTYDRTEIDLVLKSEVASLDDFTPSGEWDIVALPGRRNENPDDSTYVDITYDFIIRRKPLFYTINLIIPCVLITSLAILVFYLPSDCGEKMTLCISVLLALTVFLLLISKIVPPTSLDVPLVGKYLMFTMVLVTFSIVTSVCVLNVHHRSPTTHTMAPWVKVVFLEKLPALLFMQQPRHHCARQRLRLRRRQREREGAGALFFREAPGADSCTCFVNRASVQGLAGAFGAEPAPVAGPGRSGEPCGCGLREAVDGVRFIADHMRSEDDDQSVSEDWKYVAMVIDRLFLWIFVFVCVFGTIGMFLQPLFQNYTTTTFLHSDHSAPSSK

`CNC1(c2ccccc2Cl)CCCCC1=O` (centres unmarked) [ketamine] displayed a half-maximal inhibitory concentration (IC50) in assay [1] of 1400 nM. The compound further had an IC50 in assay [2] of 5.2 µM. In assay [3], the koff was found to be 8.5 s⁻¹, the kon was 3.84e+07 M⁻¹ s⁻¹, the Kd was 224 nM and the “k′(NLC) retention capacity factor” value came to 8.25.
`CC12CC3CC(C)(C1)CC(N)(C3)C2` [memantine] registered a half-maximal inhibitory concentration (IC50) in assay [4] of 6.6 µM. Moreover, in assay [3], the koff turned out to be 3.45 s⁻¹, the on-rate constant (kon) worked out at 1.88e+07 M⁻¹ s⁻¹, the Kd was 182 nM and the “k′(NLC) retention capacity factor” value was found to be 16.71.

(Values after US7749984B2, “Computer-based model for identification and characterization of non-competitive inhibitors of nicotinic acetylcholine receptors and related ligand-gated ion channel receptors” (priority 2003, dated 2010).)
